Assay results as given in PMC10742472, “Synthesis and Characterisation of Platinum(II) Diaminocyclohexane Complexes with Pyridine Derivatives as Anticancer Agents” (International Journal of Molecular Sciences, 2023).

Legend:
[1] = type: physicochemical
Procedure: Lipophilicity was calculated using RP-HPLC. A stock solution of each PC was injected at different isocratic ratios ranging from 70–90% solvent B (organic) at a flow rate of 1 mL·min^−1 [32, 33, 34]. The complexes have low solubility in water, often requiring DMSO to make concentrated solutions. Yet the LogK’ calculated using these experimental data indicated high lipophilicity, which is typical for 2+ charged complexes. […] When heat was applied, they would not precipitate out of the solution after cooling. This confirmed that a lack of persistence was the cause of the “observed” low solubility in H2O. […] Their increased lipophilicity may indicate they have the potential to be administered orally, a characteristic usually associated with Pt(IV) complexes. Other factors, such as stability and cellular absorption, would need to be considered before the potential of these Pt(II) anticancer agents could be evaluated.
Lipophilicity was evaluated using RP-HPLC, whereby LogKw is calculated by injecting a stock solution of the PC at different isocratic ratios ranging from 70–90% solvent B (organic) at a flow rate of 1 mL·min^−1. An Agilent Technologies 1260 Infinity machine equipped with a Phenomenex Onyx™ Monolithic C18 reverse phase column (100 × 4.6 mm, 130 Å) was used to determine purity. The mobile phase comprised 0.06% TFA in water (solvent A) and 0.06% TFA in 90:10 ACN:H2O mixture (solvent B). The PC peak was eluted outside the dead zero volume time to avoid inaccurate results. The dead zero volume time was determined using potassium iodide as an external dead volume marker, with further details in the Supplementary Materials. The subsequent peaks were recorded, and K was calculated using Equation (6). (6) K=tr−t0/t0 where K is the capacity factor, tr is the retention time of the analyte, and t0 is the dead time determined using a solution of KI in the same column. At least five different isocratic ratios were used to assess each PC, and each experiment was repeated three times. LogK’ was then calculated and plotted against the concentration of ACN in the mobile phase. […] (7) LogK^′=Sφ+LogKw where S is the slope, φ is the concentration of ACN in the mobile phase, and LogKw represents the capacity factor of the compound in 100% water (Figure S49).

Calf-thymus DNA (ctDNA) = test: Fluorescent intercalator displacement (FID) ctDNA binding assay with ethidium bromide; parameters: Ka (binding coefficient) / KF (binding constant for fluorescence) / Kq (bimolecular quenching constant) / KSV (Stern–Volmer quenching constant): unit not given here; conditions: 75 µM ethidium bromide, 150 µM ctDNA, pH 7.0
Procedure: To achieve this, the fluorescent signal of a DNA intercalator, in this case, ethidium bromide (EtBr), is measured as increasing concentrations of PC are added. As the PC displaces the EtBr, the fluorescence of the mixture is diminished, and the DNA binding capacity of the complex can be calculated from the fluorescence measurement. Calf-thymus DNA (ctDNA) was used and saturated with EtBr. The change in fluorescence is monitored as the complex is titrated into this solution. Once the decrease in fluorescence plateaued, the titration was ended. […] The fluorescence was measured from 550-750 nm and excited at 480 nm. Importantly, the cuvette was inverted four times, and the solution was incubated for 3 min after the addition of […] to allow adequate time for the PCs to interact with the DNA before scanning. […] A plot of F0/F against [PC] using experimental values allowed the determination of Kq and KSV from the slope as per Equation (5). (5) […] where n is the number of ethidium ligands that are displaced per PC. It is important to note that this expression is a simplification of the true binding interaction, as it ignores the effect of EtBr on the binding equilibrium. […] A plot of Log10[(F0 - F)/F)] against Log10[PC] was used to determine KF and n from the intercept and slope, respectively.

HT29 (Colon) = test: MTT cytotoxicity assay, HT29; type: cell-based; conditions: 72 h exposure
U87 (Glioblastoma) = test: MTT cytotoxicity assay, U87; type: cell-based; conditions: 72 h exposure
MCF-7 (Breast) = test: MTT cytotoxicity assay, MCF-7; type: cell-based; conditions: 72 h exposure
H460 (Lung) = test: MTT cytotoxicity assay, H460; type: cell-based; conditions: 72 h exposure
A431 (Skin) = test: MTT cytotoxicity assay, A431; type: cell-based; conditions: 72 h exposure
Du145 (Prostate) = test: MTT cytotoxicity assay, Du145; type: cell-based; conditions: 72 h exposure
BE2-C (Neuroblastoma) = test: MTT cytotoxicity assay, BE2-C; type: cell-based; conditions: 72 h exposure
SJ-G2 (Glioblastoma) = test: MTT cytotoxicity assay, SJ-G2; type: cell-based; conditions: 72 h exposure
MIA (Pancreas) = test: MTT cytotoxicity assay, MIA; type: cell-based; conditions: 72 h exposure
MCF10A (Breast, Normal) = test: MTT cytotoxicity assay, MCF10A non-cancer breast cells; type: cell-based; conditions: 72 h exposure

Compound | Lipophilicity [1] | Binding Stoichiometry (Calf-thymus DNA (ctDNA)) | KF (binding constant for fluorescence) (Calf-thymus DNA (ctDNA)) | KSV (Stern–Volmer quenching constant) (Calf-thymus DNA (ctDNA)) | Ka (binding coefficient) (Calf-thymus DNA (ctDNA)) | Kq (bimolecular quenching constant) (Calf-thymus DNA (ctDNA)) | n (molar equivalents of PC at the point of intersection) (Calf-thymus DNA (ctDNA)) | ΔFsat (change in fluorescence at the point of binding) (Calf-thymus DNA (ctDNA)) | GI50 (HT29 (Colon)) [µM] | GI50 (U87 (Glioblastoma)) [µM] | GI50 (MCF-7 (Breast)) [µM] | GI50 (H460 (Lung)) [µM] | GI50 (A431 (Skin)) [µM] | GI50 (Du145 (Prostate)) [µM] | GI50 (BE2-C (Neuroblastoma)) [µM] | GI50 (SJ-G2 (Glioblastoma)) [µM] | GI50 (MIA (Pancreas)) [µM] | GI50 (MCF10A (Breast, Normal)) [µM]
N[C@H]1CCCC[C@@H]1N.[Pt+2].c1ccc(C2CCCN2)nc1 [Complex 4a, [Pt(2-pyrrolidin-2-yl pyridine)(1S,2S-(+)-diaminocyclohexane)]^2+] | 2.68 ± 0.02 | 1.48 | 6.20 × 10^3 | 4.16 × 10^3 | 1.06 × 10^4 | 0.83 × 10^3 | 1.83 | 135.0 | > 50 | 48 ± 2.6 | 3.2 ± 0.6 | 4.4 ± 0.7 | 9 ± 2.3 | 47 ± 1.7 | 37.5 ± 0.5 | 17 ± 1.9 | 12 ± 1 | 42 ± 3
[Cl][Pt][Cl].c1ccc(-c2nc3ccccc3[nH]2)nc1 [Complex 3, [Pt(BImPy)(Cl)2]] | – | 3.40 | 3.72 × 10^3 | 2.18 × 10^3 | 5.10 × 10^4 | 0.51 × 10^3 | 1.24 | 110.3 | > 50 | 37 ± 2 | 12 ± 1.2 | 15 ± 3.1 | 47 ± 2.5 | > 50 | > 50 | 42 ± 1.5 | > 50 | 45 ± 3.2
[Pt(2-(1H-Imidazol-2-yl)pyridine)(1R,2R-(+)-diaminocyclohexane)]^2+ [Complex 5b] | – | 0.78 | 3.66 × 10^3 | 2.54 × 10^3 | 3.15 × 10^4 | 0.41 × 10^3 | 0.95 | 165.9 | 0.75 ± 0.07 | 0.05 ± 0.01 | 0.3 ± 0.07 | 0.37 ± 0.05 | 0.49 ± 0.07 | 0.44 ± 0.07 | 0.3 ± 0.05 | 4.5 ± 0.6 | 0.56 ± 0.11 | 0.22 ± 0.03
[Pt(2-pyrrolidin-2-yl pyridine)(1R,2R-(+)-diaminocyclohexane)]^2+ [Complex 4b] | – | 1.17 | 5.77 × 10^3 | 3.85 × 10^3 | 1.40 × 10^4 | 0.74 × 10^3 | 1.68 | 121.0 | > 50 | 43 ± 0.67 | 12.5 ± 0.76 | 31 ± 0.88 | 30 ± 4.7 | > 50 | 31 ± 1.2 | > 50 | 43 ± 1 | 45
N[C@H]1CCCC[C@@H]1N.[Pt+2].c1ccc(-c2nc3ccccc3[nH]2)nc1 [Complex 6a] | 2.42 ± 0.02 | 0.84 | 2.94 × 10^3 | 2.12 × 10^3 | 0.66 × 10^4 | 0.30 × 10^3 | 0.71 | 116.7 | 0.45 ± 0.02 | 0.034 ± 0.003 | 0.16 ± 0.03 | 0.26 ± 0.04 | 0.36 ± 0.05 | 0.3 ± 0.04 | 0.19 ± 0.02 | 2.7 ± 0.29 | 0.3 ± 0.03 | 0.15 ± 0.01
N.N.[Cl][Pt][Cl] [Cisplatin, reference compound] | – | – | – | – | – | – | – | – | 11 ± 1.9 | 4 ± 1.1 | 6.5 ± 0.8 | 2.4 ± 0.3 | 1.2 ± 0.1 | 1.9 ± 0.2 | 0.4 ± 0.1 | 7.5 ± 1.3 | – | –
[Cl][Pt][Cl].c1ccc(-c2ncc[nH]2)nc1 [Complex 2, [Pt(ImPy)(Cl)2]] | – | 3.82 | 3.12 × 10^3 | 1.68 × 10^3 | 2.75 × 10^4 | 0.50 × 10^3 | 1.18 | 80.9 | 34 ± 2 | 30 ± 2 | 25 ± 2.3 | 4 ± 1 | 42 ± 3.5 | 36 ± 1.3 | 37 ± 4 | 14 ± 0.17 | 29 ± 2.3 | 13 ± 0.6
[Cl][Pt][Cl].c1ccc(C2CCCN2)nc1 (stereo not drawn) [Complex 1, [Pt(PyPy)(Cl)2]] | – | 3.61 | 2.69 × 10^3 | 1.65 × 10^3 | 5.05 × 10^4 | 0.40 × 10^3 | 0.91 | 99.1 | 53 ± 1 | 36 ± 1.5 | 30 ± 1 | 16 ± 1.7 | > 50 | > 50 | > 50 | > 50 | > 50 | > 50
